Structures can show the parent of a compound that is named as a salt. Where two headings read alike, the source gives them in different places.
Tests used:
[1] = tested on: Streptococcus mutans ATCC 27607; assay: Inhibition of Streptococcus mutans adherence (adhered plaque turbidity); format: cell-based; settings: for Turbidity (600 nm): 37° C., 14 hours; for inhibition at 50 µg/mL / inhibition at 100 µg/mL: Streptococcus mutans, ATCC27607, 14 h
Experimental: Heart Infusion bouillon (Difco) containing various concentrations of sucrose was autoclaved and added aseptically with various amounts of ribocitrin aqueous solution (filter-sterilized) or sterile water for control (final volume is 3.0 ml and final concentrations are shown in Table 1). Each tube was inoculated with 1×10^5 CFU of Streptococcus mutans ATCC 27607 grown overnight at 37° C. in Brain Heart Infusion bouillon (Difco) and incubated anaerobically in a candle jar at 37° C. for 14 hours. The tube was positioned at an angle 30° from the horizontal. Nonadherent cells were removed by pouring off the broth and the test tube was washed three times with 3 ml of 5 mM phosphate buffer (pH 6.0). The adhered plaque (insoluble dextran and cellular aggregates formed as a result of insoluble dextran production) was suspended in 3 ml of phosphate buffer described above by mechanical stirring and by scraping the surface with a glass rod. Turbidity of the suspension was measured at 600 nm.

[2] = Solubility (characterizing properties); format: physicochemical; settings: sodium salt
Description: Ribocitrin in the form of its sodium salt has the following characterizing properties:
2. Soluble in water; insoluble in organic solvents.

dextransucrase = assay: Inhibitory activity to dextransucrase (turbidity at 600 nm); format: biochemical, Streptococcus mutans ATCC 27607; settings: qualitative statement; curve only in FIG. 4
Experimental: Dextransucrase was prepared as follows: Streptococcus mutans ATCC 27607 was inoculated to Brain Heart Infusion bouillon (Eiken Chemical Co.) and grown overnight at 37° C. The culture supernatant obtained by centrifugation was precipitated with ammonium sulfate at 50% saturation. The precipitated enzyme was desalted and purified by conventional procedures.

SMILES	Turbidity (600 nm) ([1]; 50 μg/ml ribocitrin sodium salt, 0.5% sucrose)	Turbidity (600 nm) ([1]; 50 μg/ml ribocitrin sodium salt, 1.0% sucrose)	Turbidity (600 nm) ([1]; 50 μg/ml ribocitrin sodium salt, 2.0% sucrose)	Turbidity (600 nm) ([1]; 100 μg/ml ribocitrin sodium salt, 0.5% sucrose)	Turbidity (600 nm) ([1]; 100 μg/ml ribocitrin sodium salt, 1.0% sucrose)	Turbidity (600 nm) ([1]; 100 μg/ml ribocitrin sodium salt, 2.0% sucrose)	inhibition at 50 µg/mL ([1]; read-out: Percent inhibition, 50 μg/ml ribocitrin sodium salt, 0.5% sucrose, 37° C.) [%]	inhibition at 50 µg/mL ([1]; read-out: Percent inhibition, 50 μg/ml ribocitrin sodium salt, 1.0% sucrose, 37° C.) [%]	inhibition at 50 µg/mL ([1]; read-out: Percent inhibition, 50 μg/ml ribocitrin sodium salt, 2.0% sucrose, 37° C.) [%]	inhibition at 100 µg/mL ([1]; read-out: Percent inhibition, 100 μg/ml ribocitrin sodium salt, 0.5% sucrose, 37° C.) [%]	inhibition at 100 µg/mL ([1]; read-out: Percent inhibition, 100 μg/ml ribocitrin sodium salt, 1.0% sucrose, 37° C.) [%]	inhibition at 100 µg/mL ([1]; read-out: Percent inhibition, 100 μg/ml ribocitrin sodium salt, 2.0% sucrose, 37° C.) [%]	Solubility in organic solvents ([2]; organic solvents)	Solubility in water ([2]; water)	Inhibitory activity toward dextransucrase (in words) (dextransucrase)
O=C(O)CC[C@@](CC(=O)O)(O[C@H]1O[C@H](CO)[C@@H](O[C@H]2O[C@H](CO)[C@@H](O)[C@H]2O[C@H]2O[C@H](CO)[C@@H](O)[C@H]2O)[C@H]1O)C(=O)O [Ribocitrin (sodium salt)]	0.510	0.340	0.333	0.249	0.173	0.132	17	43	33	60	71	73	insoluble	Soluble	
O=C(O)CC[C@@](CC(=O)O)(O[C@H]1O[C@H](CO)[C@@H](O[C@H]2O[C@H](CO)[C@@H](O)[C@H]2O[C@H]2O[C@H](CO)[C@@H](O)[C@H]2O)[C@H]1O)C(=O)O [ribocitrin, 2-(S)-[O-α-D-ribofuranosyl-(1→2)-O-α-D-ribofuranosyl-(1→3)-α-D-ribofuranosyloxy]-1,2,4-butanetricarboxylic acid]															effective inhibitors of dextransucrase

From patent US4426447A, “Homocitric acid oligoriboside derivative for prevention of dental caries” (Zaidan Hojin Biseibutsu Kagaku Kenkyu Kai, priority 1980, dated 1984)
